Our source for the IC50 values is patent US10550105B2 (Ribon Therapeutics Inc., priority 2018, dated 2020).

The target of this assay is PARP7 (Homo sapiens (Human), UniProt Q7Z3E1). Put plainly: Enzymatic assay for inhibition of PARP7: TR-FRET displacement of biotinylated Probe A from the TIPARP active site. It counts as binding. The following applies: Table A-1. Summed up:
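TR-FRET, ex 320 nm / em 615 and 665 nm. Signal ratio reflects complex formation.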
For orientation: Time-resolved FRET reads energy transfer from a long-lived donor to a nearby acceptor.

PARP7, sequence (Q7Z3E1 whole entry): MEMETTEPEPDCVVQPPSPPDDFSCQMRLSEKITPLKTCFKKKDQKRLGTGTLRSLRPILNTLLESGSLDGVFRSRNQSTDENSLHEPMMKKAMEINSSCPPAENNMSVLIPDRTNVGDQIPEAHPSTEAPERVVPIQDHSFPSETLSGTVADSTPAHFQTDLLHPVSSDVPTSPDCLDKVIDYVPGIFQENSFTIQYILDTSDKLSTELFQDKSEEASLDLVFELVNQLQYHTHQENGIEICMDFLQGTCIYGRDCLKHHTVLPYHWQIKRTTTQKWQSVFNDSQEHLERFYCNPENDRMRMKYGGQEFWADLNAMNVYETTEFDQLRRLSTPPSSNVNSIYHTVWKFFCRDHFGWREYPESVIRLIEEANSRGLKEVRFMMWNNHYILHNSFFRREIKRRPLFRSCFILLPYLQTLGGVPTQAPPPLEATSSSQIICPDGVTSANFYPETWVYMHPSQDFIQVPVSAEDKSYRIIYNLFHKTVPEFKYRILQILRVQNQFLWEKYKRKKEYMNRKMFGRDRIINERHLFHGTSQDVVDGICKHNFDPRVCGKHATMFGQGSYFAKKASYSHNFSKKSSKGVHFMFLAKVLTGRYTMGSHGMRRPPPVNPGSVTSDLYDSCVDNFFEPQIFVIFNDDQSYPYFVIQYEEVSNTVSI

`C[C@@H](COCCS(=O)(=O)N1CCN(c2ncc(C(F)(F)F)cn2)CC1)Nc1cn[nH]c(=O)c1C(F)(F)F` [Example 620, (S)-4-(Trifluoromethyl)-5-((1-(2-((4-(5-(trifluoromethyl)pyrimidin-2-yl)piperazin-1-yl)sulfonyl)ethoxy)propan-2-yl)amino)pyridazin-3(2H)-one] came in with an IC50 of under 100 nM.

As to `C[C@@H](CSCCC(=O)N1CCN(c2ncc(C(F)(F)F)cn2)CC1)Oc1cn[nH]c(=O)c1C(F)(F)F` [Example 621A, (S)-5-((1-((3-Oxo-3-(4-(5-(trifluoromethyl)pyrimidin-2-yl)piperazin-1-yl)propyl)thio)propan-2-yl)oxy)-4-(trifluoromethyl)pyridazin-3(2H)-one], the IC50 was in the range of 100 to 1000 nM.

Take `C[C@H](CSCCC(=O)N1CCN(c2ncc(C(F)(F)F)cn2)CC1)Oc1cn[nH]c(=O)c1C(F)(F)F` [Example 621B, (R)-5-((1-((3-Oxo-3-(4-(5-(trifluoromethyl)pyrimidin-2-yl)piperazin-1-yl)propyl)thio)propan-2-yl)oxy)-4-(trifluoromethyl)pyridazin-3(2H)-one]: the half-inhibitory concentration (IC50) was under 100 nM.

`C[C@@H](COCCC(=O)N1CCN(c2ncc(C(F)(F)F)s2)CC1)Nc1cn[nH]c(=O)c1C(F)(F)F` [Example 622, (S)-5-((1-(3-Oxo-3-(4-(5-(trifluoromethyl)thiazol-2-yl)piperazin-1-yl)propoxy)propan-2-yl)amino)-4-(trifluoromethyl)pyridazin-3(2H)-one] returned an IC50 of under 100 nM.

On to `C[C@@H](COCCC(=O)N1CCN(c2ncc(C(C)(C)C)cn2)CC1)Nc1cn[nH]c(=O)c1C(F)(F)F` [Example 623, (S)-5-((1-(3-(4-(5-(Tert-butyl)pyrimidin-2-yl)piperazin-1-yl)-3-oxopropoxy)propan-2-yl)amino)-4-(trifluoromethyl)pyridazin-3(2H)-one], for which the IC50 was under 100 nM.

In turn, `COC[C@@H](COCCS(=O)(=O)N1CCN(c2ncc(C(F)(F)F)cn2)CC1)Nc1cn[nH]c(=O)c1C(F)(F)F` [Example 624, (S)-5-((1-Methoxy-3-(2-[(4-(5-(trifluoromethyl)pyrimidin-2-yl)piperazin-1-yl)sulfonyl)ethoxy)propan-2-yl)amino)-4-(trifluoromethyl)pyridazin-3(2H)-one] came in with an IC50 of under 100 nM.

For the compound `C[C@@H](COCCS(=O)(=O)N1CCN(c2ncc(C(F)(F)F)s2)CC1)Oc1cn[nH]c(=O)c1C(F)(F)F` [Example 625, (S)-4-(Trifluoromethyl)-5-((1-(2-[(4-(5-(trifluoromethyl)thiazol-2-yl)piperazin-1-yl)sulfonyl)ethoxy)propan-2-yl)oxy)pyridazin-3(2H)-one], the IC50 was under 100 nM.

The compound `C[C@@H](COCC(O)CN1CCN(c2ncc(C(F)(F)F)cn2)CC1)Nc1cn[nH]c(=O)c1C(F)(F)F` (stereo partly drawn) [Example 626, 5-(((2S)-1-(2-Hydroxy-3-(4-(5-(trifluoromethyl)pyrimidin-2-yl)piperazin-1-yl)propoxy)propan-2-yl)amino)-4-(trifluoromethyl)pyridazin-3(2H)-one] had an IC50 of under 100 nM.

For the compound `O=C(CCNC[C@@H]1c2ccccc2CN1c1cn[nH]c(=O)c1C(F)(F)F)N1CCN(c2ncc(Cl)cn2)CC1` [Example 627, (S)-5-(1-(((3-(4-(5-Chloropyrimidin-2-yl)piperazin-1-yl)-3-oxopropyl)amino)methyl)isoindolin-2-yl)-4-(trifluoromethyl)pyridazin-3(2H)-one], the 50% inhibitory concentration (IC50) is under 100 nM.

The compound `O=C(CCNC[C@H]1c2ccccc2CN1c1cn[nH]c(=O)c1C(F)(F)F)N1CCN(c2ncc(Cl)cn2)CC1` [Example 628, (R)-5-(1-(((3-(4-(5-Chloropyrimidin-2-yl)piperazin-1-yl)-3-oxopropyl)amino)methyl)isoindolin-2-yl)-4-(trifluoromethyl)pyridazin-3(2H)-one] gave an IC50 of at least 1000 nM.

`O=C(CCNC[C@@H]1c2ccccc2CN1c1cn[nH]c(=O)c1C(F)(F)F)N1CCN(c2ccc(C(F)(F)F)cn2)CC1` [Example 629, (S)-5-(1-(((3-Oxo-3-(4-(5-(trifluoromethyl)pyridin-2-yl)piperazin-1-yl)propyl)amino)methyl)isoindolin-2-yl)-4-(trifluoromethyl)pyridazin-3(2H)-one] came in with an IC50 of under 100 nM.

As to `O=C(CCNC[C@H]1c2ccccc2CN1c1cn[nH]c(=O)c1C(F)(F)F)N1CCN(c2ccc(C(F)(F)F)cn2)CC1` [Example 630, (R)-5-(1-(((3-Oxo-3-(4-(5-(trifluoromethyl)pyridin-2-yl)piperazin-1-yl)propyl)amino)methyl)isoindolin-2-yl)-4-(trifluoromethyl)pyridazin-3(2H)-one], the IC50 is at least 1000 nM.

On to `O=C(CCOC[C@H](CO)Nc1cn[nH]c(=O)c1C(F)(F)F)N1CCN(c2ccc(Cl)cn2)CC1` [Example 633, (S)-5-((1-(3-(4-(5-Chloropyridin-2-yl)piperazin-1-yl)-3-oxopropoxy)-3-hydroxypropan-2-yl)amino)-4-(trifluoromethyl)pyridazin-3(2H)-one], for which the IC50 is under 100 nM.

With `C[C@@H](COCCCC(=O)N1CCN(c2ncc(C(F)(F)F)cn2)CC1)Nc1cn[nH]c(=O)c1C(F)(F)F` [Example 634, (S)-5-((1-(4-Oxo-4-(4-(5-(trifluoromethyl)pyrimidin-2-yl)piperazin-1-yl)butoxy)propan-2-yl)amino)-4-(trifluoromethyl)pyridazin-3(2H)-one], the IC50 is under 100 nM.

Consider `C[C@H](O)[C@@H](COCCC(=O)N1CCN(c2ncc(C(F)(F)F)cn2)CC1)Nc1cn[nH]c(=O)c1C(F)(F)F` [Example 635, 5-(((2R,3S)-3-Hydroxy-1-(3-oxo-3-(4-(5-(trifluoromethyl)pyrimidin-2-yl)piperazin-1-yl)propoxy)butan-2-yl)amino)-4-(trifluoromethyl)pyridazin-3(2H)-one], for which the IC50 was under 100 nM.

Consider `C[C@@H](COCCC(=O)N1CCN(c2ncc(C(F)(F)F)cn2)CC1)N(C)c1cn[nH]c(=O)c1Cl` [Example 636, (S)-4-Chloro-5-(methyl(1-(3-oxo-3-(4-(5-(trifluoromethyl)pyrimidin-2-yl)piperazin-1-yl)propoxy)propan-2-yl)amino)pyridazin-3(2H)-one], for which the IC50 was 100 to 1000 nM.

In the case of `O=C(CCOC[C@H](Cc1cccnc1)Nc1cn[nH]c(=O)c1C(F)(F)F)N1CCN(c2ncc(C(F)(F)F)cn2)CC1` [Example 637, (S)-5-((1-(3-Oxo-3-(4-(5-(trifluoromethyl)pyrimidin-2-yl)piperazin-1-yl)propoxy)-3-(pyridin-3-yl)propan-2-yl)amino)-4-(trifluoromethyl)pyridazin-3(2H)-one], the IC50 was under 100 nM.

Take `N#Cc1ccc(N2CCN(C(=O)C[C@H]3CC[C@H](COc4cn[nH]c(=O)c4C(F)(F)F)N3)CC2)nc1` [Example 638, 6-(4-(2-((2R,5R)-5-(((6-Oxo-5-(trifluoromethyl)-1,6-dihydropyridazin-4-yl)oxy)methyl)pyrrolidin-2-yl)acetyl)piperazin-1-yl)nicotinonitrile]: the IC50 lay within 100 to 1000 nM.

In turn, `N#Cc1ccc(N2CCN(C(=O)C[C@@H]3CC[C@@H](COc4cn[nH]c(=O)c4C(F)(F)F)N3)CC2)nc1` [Example 639, 6-(4-(2-((2S,5S)-5-(((6-Oxo-5-(trifluoromethyl)-1,6-dihydropyridazin-4-yl)oxy)methyl)pyrrolidin-2-yl)acetyl)piprazin-1-yl)nicotinonitrile] displayed an IC50 of at least 1000 nM.

A word on the IC50: it is the midpoint of a concentration-inhibition curve.
